According to patent US7863264B2, “Stabilised compositions having antibacterial activity” (Coloplast A/S, priority 2000, dated 2011):

Columns and labels:
[1] = UV light stability test (visual and CIE-Lab colour measurement); format: physicochemical; set-up: key to Dist. (distance in CIE-Lab colour space): Dist = √(ΔL²+Δa²+Δb²) in CIE-Lab, before vs after UV; conditions: for Visual evaluation of complexes after UV-irradiation: UV lamp 30 minutes, cut off approx. 280 nm; for L2 (CIE-Lab colour coordinate L) / a2 (CIE-Lab colour coordinate a) / b2 (CIE-Lab colour coordinate b): after 30 minutes UV irradiation; for L1 (CIE-Lab colour coordinate L) / b1 (CIE-Lab colour coordinate b) / a1 (CIE-Lab colour coordinate a): before irradiation; for Dist. (distance in CIE-Lab colour space): before vs after 30 minutes UV irradiation
Procedure: 1.5 g of complex was placed in a 50 mm Pyrex petri dish. This was covered with a 56 mm Pyrex lid with a UV-cut off at approx. 280 nm and placed 100 mm under a UV lamp (UVASPOT) 400/T 450W metal halide high pressure lamp, Dr. K. Hönle GmbH) for 30 minutes.
The colour was measured, with a Minolta CR300 colour measurement apparatus (CIE-Lab colour coordinates) before (1) and after (2) irradiation. Measurements were made approx. 1 mm above the complex. The distance in colour-space was calculated using the formula Dist=√{square root over (ΔL^2+Δa^2+Δb^2)}, where “L”, “a”, and “b” are the CIE-Lab Colour Coordinates Solubility for 1:1 Complexes:
Compounds according to the production in example 4 were assessed for stability against UV-light (wave length >280 nm). Milled powders were spread in a 1 mm thick layer in ordinary petri dishes and illuminated by the UV-light for 30 minutes.

[2] = Solubility for 1:1 complexes (silver by atomic absorption spectroscopy); conditions: Complex Ag:ligand 1:1; purified water
Procedure: The tube is placed on a vortex mixer for 1 h (1500 min^−1) and the tube is centrifuged (3000 min^−1/30 min). The water is decanted off and discarded, and another 10 ml purified water is added. This is repeated 2 times, and after the third centrifugation, the liquid decanted off is filtered (0.22 mm PVDF), preserved with nitric acid and the silver concentration is determined by atomic absorption spectroscopy after appropriate dilution.
Determination of solubility of complexes of silver with various ligands.

Row | Compound | Visual evaluation of complexes after UV-irradiation [1] | L2 (CIE-Lab colour coordinate L) [1] | a2 (CIE-Lab colour coordinate a) [1] | b2 (CIE-Lab colour coordinate b) [1] | L1 (CIE-Lab colour coordinate L) [1] | b1 (CIE-Lab colour coordinate b) [1] | Dist. (distance in CIE-Lab colour space) [1] | discolouration of the product ([1]; complex made according to U.S. Pat. No. 2,336,131, UV test not meaningful) | a1 (CIE-Lab colour coordinate a) [1] | Solubility [2] [mg Ag/l]
1 | Silver allantoinate [Ag-allantoin 1:1, reference compound] | Dark brown/heavily discoloured | 32.7 | 14.71 | 28.41 | 92.98 | 2.3 | 67.44 | discoloured extremely easily | – | –
2 | Silver 5,5-diethyl-hydantoinate [Ag/5,5-diethyl-hydantoin] | White/no trace of discolouration | 94.05 | – | 2.03 | 96.76 | 0.67 | 3.05 | – | – | –
3 | Silver 5-methyl-5-isobutyl-hydantoinate [Ag/5-isobutyl-5-methyl-hydantoin] | White/no trace of discolouration | 92.65 | – | 1.74 | 92.4 | 0.42 | 1.36 | – | 0.03 | –
4 | CC(=O)N1C(=O)[N-]C(=O)C1(C)C.[Ag+] [Ag/1-acetyl-5,5-dimethyl-hydantoin, Silver 1-acetyl-5,5-dimethyl-hydantoinate] | – | – | – | – | – | – | – | – | – | 1.100
5 | O=C1CNC(=O)[N-]1.[Ag+] [Ag/hydantoin, Silver hydantoinate, reference compound] | Dark brown/heavily discoloured | 26.03 | 10.75 | 12.84 | 96.67 | 2.62 | 72.17 | – | 0.06 | –
6 | CC1(C)NC(=O)[N-]C1=O.[Ag+] [Ag/5,5-dimethyl-hydantoin, Silver 5,5-dimethyl-hydantoinate] | White/no trace of discolouration | 96.84 | – | 0.39 | 94.96 | 0.12 | 1.90 | – | – | –
